{"source": "patent US8987324B2", "about": "“Use of simalikalactone E as an anticancer agent” (Institut de Recherche pour le Developpement, priority 2011, dated 2015)", "key": {"[1]": {"tested_on": "Rafl-dependent Erk1/2 (MAP kinase) phosphorylation", "assay": "Rafl-dependent Erk1/2 phosphorylation in inducible HEK-Rafl-ER cells", "assay_type": "cell-based", "settings": "30 minutes preincubation, then 1 μM tamoxifen for 1 hour", "experimental": "In the experiment presented in FIG. 6B, inducible HEK-Rafl-ER cells were used. These cells express the Raf kinase under the control of the estrogen receptor. The expression of Raf can therefore be induced in the presence of tamoxifen. The cells are preincubated for 30 minutes with increasing doses of Simalikalactone E or U0126, and then treated with 1 μM of tamoxifen for 1 hour. The cells are then lyzed and protein extracts are prepared for western blot analysis. The membranes are finally incubated in the presence of the various antibodies (p-Erk1/2, Erk1/2 and HSP60). Simalikalactone E and U0126 inhibit Rafl-dependent Erk1/2 (MAP kinase) phosphorylation."}, "K562 cells": {"tested_on": "K562 cells", "assay": "Clonogenic capacity of K562 cells", "assay_type": "cell-based", "settings": "SkE 100, 250 or 500 nM versus 1 μM imatinib, 7 to 10 days", "experimental": "B1-2. Evaluation of the Clonogenic Capacity of K562 Cells\nAliquots of methylcellulose (40% Methocult®, 1% L-glutamine, 5% FCS (fetal calf serum) and 54% IMDM (Iscove's modified Dulbecco's medium)) are heated for 1 h at 37° C. 400 μl of RPMI (Roswell Park Memorial Institute medium), 5% of FCS containing the treatment (1 μM imatinib, 100, 250 or 500 nM SkE), and then 10^3 K562 cells in 200 μl of medium are added to each aliquot. For each condition, 500 μl of the suspension obtained are then deposited in 3 wells of a 24-well plate. A nontreated condition serves as a control. The plates are incubated at 37° C. for 7 to 10 days. 75 μl of MTT tetrazolium salt (Roche) (2.5 mg/ml) are added to each well. The MTT tetrazolium salt is cleaved into purple-colored formazan crystals by the metabolically active cells. After incubation for 4 h at 37° C., the wells are photographed and the clones are quantified using the Image J program."}, "[2]": {"tested_on": "CD34+ Bcr-Abl+ primary cells from patients suffering from CML", "assay": "XTT viability of CD34+ human primary cells from CML patients", "assay_type": "cell-based", "settings": "48 hours", "experimental": "The primary cells from patients suffering from CML (purified CD34+Bcr-Abl+) are incubated in the presence of variable concentrations of Simalikalactone E for 48 hours, and then the cell viability is quantified using an XTT colorimetric test. Imatinib (Ima) is used as a positive control for the induction of death of the Bcr-Abl+ cells."}, "[3]": {"tested_on": "K562-Ima-R leukemia cell line", "assay": "XTT cell viability, K562-Ima-R", "assay_type": "cell-based", "settings": "48 hours", "experimental": "(§1) B1-1. XTT Cell Viability Measurement\n(§2) This test measures the activity of mitochondrial succinate dehydrogenase, which represents an index of cell viability. This enzyme converts XTT into orange formazan. On day 0, the K562-Ima-S (sensitive to Ima), K562-Ima-R (resistant to Ima), A375 or MeWo cells are seeded at 15 000 cells/well (100 μl) in 96-well microplates and stimulated with increasing concentrations of Simalikalactone E [50-500 nM]. After 24 or 48 hours, 50 μl of tetrazolium (XTT reagent) are added to each well and the optical density at 490 nm is read every 30 minutes for 2 to 4 hours. The values obtained, which are an index of mitochondrial metabolism, make it possible to evaluate the percentage of live cells. Each condition is systematically carried out in triplicate.\n(§3) The K562-Ima-S and K562-Ima-R tumor lines are incubated for 48 hours with increasing concentrations of Simalikalactone E (0, 100 or 250 nM) in the absence or in the presence of a maximally effective concentration (50 μM) of z-Vad-fmk (Zvad), which is a pan-caspase inhibitor (apoptosis inhibitor)."}, "[4]": {"settings": "mice, orally for 4 days; cited from earlier work"}, "certain cell lines": {"tested_on": "certain cell lines", "settings": "cited from earlier work"}, "[5]": {"tested_on": "K562-Ima-S leukemia cell line", "assay": "XTT cell viability, K562-Ima-S", "assay_type": "cell-based", "settings": "48 hours", "experimental": "as §1, §2, §3"}, "[6]": {"tested_on": "Erk1/2 kinase (MAP kinase) phosphorylation", "assay": "Western blot of death markers and Erk1/2 phosphorylation, K562-Ima-S", "assay_type": "cell-based", "experimental": "(§4) The characterization of the type of cell death involved in the effect of Simalikalactone E is carried out according to the following protocols: • apoptosis (type I cell death) is studied by assaying caspase activity, caspases being cysteine proteases involved in this type of process. The apoptosis is also quantified by annexin V/propidium iodide co-labeling, the cells which externalize the annexin V at the level of their […] being cells undergoing apoptosis, • autophagic death (type II cell death) is analyzed by assaying cathepsin activity, these proteases being, for their part, involved in the degradation of the intracellular material included in vesicles (autophagolysosomes). […] B1-4. Xenografts of K562-Luc Cells on Nude Mice\n(§5) The K562-Ima-S (A) and K562-Ima-R (B) cells are treated for variable periods of time with 250 nM of Simalikalactone E. The cells are then lyzed and protein extracts are prepared for western blot analysis. Finally, the membranes are incubated in the presence of the various anti-PARP, LC3b, p-Erk1/2, Erk1/2 and HSP60 antibodies.\nK562-Ima-S cells are then treated for 1 hour in the presence of 250 nM of Simalikalactone E or 10 μM of U0126 (specific inhibitor of MEK1/2, the kinase responsible for Erk1/2 (MAP kinase) phosphorylation and activation). The cells are then lyzed and protein extracts are prepared for western blot analysis. The membranes are then incubated in the presence of the p-Erk1/2, Erk1/2 and HSP60 antibodies."}, "Vero mammalian cells": {"tested_on": "Vero mammalian cells", "settings": "cited from earlier work"}, "[7]": {"tested_on": "Plasmodium vinckei petteri", "settings": "murine model of malaria, cited from earlier work"}, "[8]": {"tested_on": "Erk1/2 kinase (MAP kinase) phosphorylation", "assay": "Western blot of death markers and Erk1/2 phosphorylation, K562-Ima-R", "assay_type": "cell-based", "settings": "250 nM", "experimental": "as §4, §5"}, "A375 melanoma cells": {"tested_on": "A375 melanoma cells", "assay": "XTT cell viability, A375 melanoma cells", "assay_type": "cell-based", "settings": "48 hours; A375 carry B-raf V600E, MeWo do not", "experimental": "as §1, §2\nA375 and MeWo melanoma cells are then treated in the presence of increasing doses of Simalikalactone E. 48 hours later, the cells are subjected to an XTT test. The A375 cells carry the V600E mutation on the B-raf oncogene, which is reflected by constitutive activation of the Erk pathway."}, "[9]": {"tested_on": "gametocyte forms of Plasmodium falciparum", "settings": "compared with primaquine, reference molecule; cited from earlier work"}}, "note": "Like-named read-outs stand apart in the source and are kept apart here."}
{"smiles": "N#CC(=C(/N)Sc1ccccc1N)/C(C#N)=C(\\N)Sc1ccccc1N", "note": "[U0126, reference compound]", "values": [{"measurement": "Rafl-dependent Erk1/2 (MAP kinase) phosphorylation", "setting": "[1]", "value": "inhibit"}]}
{"smiles": "CCC(C)C(=O)O[C@@H]1[C@H]2C(C)=CC(=O)[C@@H](O)[C@]2(C)[C@H]2[C@@H](O)[C@H](O)[C@@]3(C)OC[C@@]24[C@@H]1OC(=O)[C@H](OC(=O)C(C)CC)[C@@H]34", "note": "(some centres unmarked) [Simalikalactone E]", "values": [{"measurement": "inhibition of clonogenic capacity", "setting": "K562 cells", "value": "as effectively as imatinib"}, {"measurement": "inhibition of cell metabolism compared with imatinib", "setting": "[2]; 500 nM", "value": "as effective as imatinib"}, {"measurement": "EC50", "setting": "[2]; Homo sapiens, read-out: dose giving the half-maximum effect", "value": 0.1, "unit": "µM"}, {"measurement": "effect on viability in the presence of caspase inhibitor z-Vad-fmk", "setting": "[3]; 50 μM z-Vad-fmk", "value": "not modified"}, {"measurement": "sensitivity (growth and viability)", "setting": "[3]; 100 or 250 nM", "value": "sensitive"}, {"measurement": "dose tolerated", "setting": "[4]", "value": 1, "unit": "mg/kg/day"}, {"measurement": "cytotoxic action", "setting": "certain cell lines", "value": "moderate"}, {"measurement": "effect on viability in the presence of caspase inhibitor z-Vad-fmk", "setting": "[5]; 50 μM z-Vad-fmk", "value": "not modified"}, {"measurement": "sensitivity (growth and viability)", "setting": "[5]; 100 or 250 nM", "value": "sensitive"}, {"measurement": "apoptosis marker (PARP cleavage)", "setting": "[6]; 250 nM", "value": "no cleavage of PARP"}, {"measurement": "autophagy marker (LC3 conversion)", "setting": "[6]; 250 nM", "value": "no modification of LC3"}, {"measurement": "concentration of U0126 relative to Simalikalactone E for equal effect (times higher)", "setting": "[6]; 250 nM SkE versus 10 μM U0126", "value": 40}, {"measurement": "inhibition of Erk1/2 phosphorylation compared with U0126", "setting": "[6]; 250 nM SkE versus 10 μM U0126, 1 hour", "value": "as effective as U0126"}, {"measurement": "Erk1/2 kinase (MAP kinase) phosphorylation", "setting": "[6]; 250 nM, variable periods of time, imatinib-sensitive cells", "value": "inhibits"}, {"measurement": "selectivity index", "setting": "Vero mammalian cells; Vero cells versus Plasmodium falciparum", "value": "greater than 100"}, {"measurement": "IC50", "setting": "Vero mammalian cells; read-out: dose inhibiting 50% of the growth of Vero mammalian cells", "value": 6.57, "unit": "µM"}, {"measurement": "dose inhibiting 50% of the growth of Plasmodium vinckei petteri", "setting": "[7]; intraperitoneally", "value": 0.5, "unit": "mg/kg/day"}, {"measurement": "dose inhibiting 50% of the growth of Plasmodium vinckei petteri", "setting": "[7]; orally", "value": 1, "unit": "mg/kg/day"}, {"measurement": "Rafl-dependent Erk1/2 (MAP kinase) phosphorylation", "setting": "[1]", "value": "inhibit"}, {"measurement": "apoptosis marker (PARP cleavage)", "setting": "[8]", "value": "no cleavage of PARP"}, {"measurement": "autophagy marker (LC3 conversion)", "setting": "[8]", "value": "no modification of LC3"}, {"measurement": "Erk1/2 kinase (MAP kinase) phosphorylation", "setting": "[8]; variable periods of time, imatinib-resistant cells", "value": "inhibits"}, {"measurement": "sensitivity in XTT test compared with MeWo cells", "setting": "A375 melanoma cells", "value": "much more sensitive"}, {"measurement": "concentration reducing the gametocyte level by 50%, relative to primaquine", "setting": "[9]", "value": "seven times lower"}]}
{"smiles": "CCN(CC)CCCC(C)Nc1ccnc2cc(Cl)ccc12", "note": "(centres unmarked) [chloroquine, reference compound]", "values": [{"measurement": "dose inhibiting 50% of the growth of Plasmodium vinckei petteri", "setting": "[7]; intraperitoneally", "value": 3, "unit": "mg/kg/day"}]}
